Source: paper PMC9088073, “Discovery of 2-Phenylquinolines with Broad-Spectrum Anti-coronavirus Activity” (ACS Medicinal Chemistry Letters, 2022)
Where two headings read alike, the source gives them in different places.

Tests used:
HCoV-OC43 = assay: microbe, parasite or virus in culture; type: cell-based; details: Betacoronavirus 1, OC43, HEL 299, read-out: HCoV-OC43 EC50
[1] = tested on: autophagy (LC3-II puncta) in VeroE6 cells; assay: Autophagy inhibition assay, LC3-II immunofluorescence in VeroE6 cells; type: cell-based
in vitro [2] = details: chlorocebus sabaeus
in vitro [3] = details: human
SARS-CoV-2 = assay: microbe, parasite or virus in culture; type: cell-based; details: for EC50: Severe acute respiratory syndrome coronavirus 2
HCoV-229E = assay: microbe, parasite or virus in culture; type: cell-based; details: Human coronavirus 229E, HEL 299, read-out: HCoV-229E EC50
VeroE6 cells = details: uninfected VeroE6 cells, MTS assay; mean ± SD of duplicate experiments
SARS-CoV-2 nsp12 RdRp = SARS-CoV-2 nsp12 RdRp (Severe acute respiratory syndrome coronavirus 2, UniProt P0DTD1); assay: SARS-CoV-2 nsp12 RdRp activity, fluorescent-based assay; type: biochemical; details: in the presence of the highest concentration of tested compound (30 μM); read-out: RdRp percentage of control
[4] = molecular target: SARS-CoV-2 nsp13 helicase (Severe acute respiratory syndrome coronavirus 2, UniProt P0DTD1); assay: biochemical; type: biochemical; details: for IC50: SARS-CoV-2 nsp13 helicase-associated activity, read-out: helicase unwinding IC50
SARS-CoV-2 nsp13 ATPase = SARS-CoV-2 nsp13 ATPase (Severe acute respiratory syndrome coronavirus 2, UniProt P0DTD1); type: biochemical; details: for IC50: SARS-CoV-2 nsp13 ATPase-associated activity, read-out: helicase ATPase IC50; for helicase ATPase percentage of control: in the presence of the highest concentration of tested compound (30 μM; 3 μM for SSYA10-001)
[5] = […], mean ± SD of duplicate experiments, read-out: Anti-SARS-CoV-2 activity EC50

CCN(CC)CCCC(C)Nc1ccnc2cc(Cl)ccc12 (stereo not drawn) [Chloroquine, chloroquine, reference compound]
EC50 (HCoV-OC43): < 0.8 µM | increase in the intensity of the cytoplasmic LC3 puncta ([1]; 10 μM for 4 h): 9 fold | CC50 (in vitro [2]): 83.4 ± 4.2 µM | CC50 (in vitro [3]): 33.6 ± 1.3 µM

CCCOc1ccc(-c2cc(O)c3ccccc3n2)cc1 [Compound 1]
Anti-SARS-CoV-2 activity EC50, primary screening (SARS-CoV-2): completely inactive | EC50 (SARS-CoV-2; [5]): > 100 µM

CCCOc1ccc(-c2cc(OCCN(CC)CC)c3ccccc3n2)cc1 [Compound 1a]
EC50 (SARS-CoV-2; [5]): 6.5 ± 0.05 µM | EC50 (SARS-CoV-2; read-out: Anti-SARS-CoV-2 activity EC50, primary screening): 6 µM | CC50 (in vitro [2]): 21.2 ± 4.2 µM

CCCOc1ccc(-c2cc(OCCCN(C)C)c3ccccc3n2)cc1 [Compound 1b]
EC50 (SARS-CoV-2; [5]): > 100 µM

CCCOc1ccc(-c2cc(OCCN(Cc3ccccc3)Cc3ccccc3)c3ccccc3n2)cc1 [Compound 1c]
EC50 (SARS-CoV-2; [5]): > 100 µM

CCCOc1ccc(-c2cc(OC3CC4CCN3CC4)c3ccccc3n2)cc1 (stereo not drawn) [Compound 1d]
EC50 (SARS-CoV-2; [5]): > 100 µM

CCCOc1ccc(-c2cc(OCc3ccccn3)c3ccccc3n2)cc1 [Compound 1e]
EC50 (SARS-CoV-2; [5]): > 100 µM

CCCOc1ccc(-c2cc(OCCN3CCN(Cc4ccccc4)CC3)c3ccccc3n2)cc1 [Compound 1f]
EC50 (SARS-CoV-2; [5]): 11.9 ± 5.5 µM | EC50 (HCoV-229E): 61.3 ± 32.2 µM | EC50 (HCoV-OC43): 92.3 ± 11 µM | VeroE6 cells CC50 (VeroE6 cells): lacked cytotoxicity | CC50 (in vitro [2]): > 100 µM | CC50 (in vitro [3]): > 100 µM

CCCOc1ccc(-c2cc(OCCN3CCc4cc(OC)c(OC)cc4C3)c3ccccc3n2)cc1 [Compound 1g]
EC50 (SARS-CoV-2; [5]): > 100 µM

CCCOc1ccc(-c2cc(OCCn3cccc3)c3ccccc3n2)cc1 [Compound 1h]
EC50 (SARS-CoV-2; [5]): > 100 µM

CCCOc1ccc(-c2cc(OCCN(CC)CC)c3c(OC)cccc3n2)cc1 [Compound 2a]
EC50 (SARS-CoV-2; [5]): > 100 µM

CCCOc1ccc(-c2cc(OCCCN(C)C)c3cc(OC)ccc3n2)cc1 [Compound 3b]
EC50 (SARS-CoV-2; [5]): > 100 µM

CCCOc1ccc(-c2cc(OCCN3CCc4cc(OC)c(OC)cc4C3)c3ccc(OC)cc3n2)cc1 [Compound 4g]
EC50 (SARS-CoV-2; [5]): > 40 µM

CCCOc1ccc(-c2cc(OCCN(CC)CC)c3cccc(OC)c3n2)cc1 [Compound 5a]
EC50 (SARS-CoV-2; [5]): 9.1 ± 3.05 µM | EC50 (HCoV-229E): 1.3 ± 0.9 µM | EC50 (HCoV-OC43): 0.6 ± 0.1 µM | CC50 (in vitro [2]): > 100 µM | CC50 (in vitro [3]): 10.4 ± 0.8 µM

CCCOc1ccc(-c2cc(OCCN3CCc4cc(OC)c(OC)cc4C3)c3cccc(OC)c3n2)cc1 [Compound 5g]
EC50 (SARS-CoV-2; [5]): > 100 µM | Anti-SARS-CoV-2 activity EC50 (SARS-CoV-2; […], mean ± SD of duplicate experiments): devoid of antiviral activity | effect on autophagy (LC3-II accumulation), in words ([1]; 10 μM, 4 h, compared to CQ): minimal effect on the autophagy | CC50 (in vitro [2]): > 100 µM

CCCOc1ccc(-c2cc(OCCN3CCNCC3)c3cccc(OC)c3n2)cc1 [Compound 5i]
EC50 (SARS-CoV-2; [5]): 7.1 ± 4.2 µM | EC50 (HCoV-229E): 0.3 ± 0.05 µM | EC50 (HCoV-OC43): 1.7 ± 0.2 µM | CC50 (in vitro [2]): 30.3 ± 0.8 µM | CC50 (in vitro [3]): 8 ± 1.3 µM

CCCOc1ccc(-c2cc(OCCN3CCCC3)c3cccc(OC)c3n2)cc1 [Compound 5j]
EC50 (SARS-CoV-2; [5]): > 100 µM | CC50 (in vitro [2]): 30.8 ± 0.1 µM

CCCOc1ccc(-c2cc(OCCN(CC)CC)c3c(OC)cc(OC)cc3n2)cc1 [Compound 6a]
EC50 (SARS-CoV-2; [5]): > 100 µM | CC50 (in vitro [2]): 6.71 ± 3.5 µM

CCCOc1ccc(-c2cc(OCCN3CCN(Cc4ccccc4)CC3)c3c(OC)cc(OC)cc3n2)cc1 [Compound 6f]
EC50 (SARS-CoV-2; [5]): 7.9 ± 5.6 µM | EC50 (HCoV-229E): 2.2 ± 0.7 µM | EC50 (HCoV-OC43): 1.9 ± 0.2 µM | remaining activity at 30 µM (SARS-CoV-2 nsp12 RdRp): 100% | IC50 [4]: > 30 µM | remaining activity at 30 µM ([4]; in the presence of the highest concentration of tested compound (30 μM), read-out: helicase unwinding percentage of control): 55% | IC50 (SARS-CoV-2 nsp13 ATPase): > 30 µM | helicase ATPase percentage of control (SARS-CoV-2 nsp13 ATPase): 96% | VeroE6 cells CC50 (VeroE6 cells): lacked cytotoxicity | CC50 (in vitro [2]): > 100 µM | CC50 (in vitro [3]): 35.6 ± 0.2 µM

CCCOc1ccc(-c2cc(OCCN3CCc4cc(OC)c(OC)cc4C3)c3c(OC)cc(OC)cc3n2)cc1 [Compound 6g]
EC50 (SARS-CoV-2; [5]): 8.8 ± 5.6 µM | EC50 (HCoV-229E): 2.9 ± 0.05 µM | EC50 (HCoV-OC43): 1.5 ± 0.1 µM | remaining activity at 30 µM (SARS-CoV-2 nsp12 RdRp): 62% | IC50 [4]: 0.42 ± 0.23 µM | IC50 (SARS-CoV-2 nsp13 ATPase): > 30 µM | helicase ATPase percentage of control (SARS-CoV-2 nsp13 ATPase): 90% | CC50 (in vitro [2]): > 100 µM

CCCOc1ccc(-c2cc(OCCN3CCCC3)c3c(OC)cc(OC)cc3n2)cc1 [Compound 6j]
EC50 (SARS-CoV-2; [5]): > 100 µM | CC50 (in vitro [2]): 16.1 ± 17 µM
